Broadly, the IC50 is the point on the concentration scale where inhibition reaches its midpoint.

The source of these data is ChEMBL document CHEMBL4028827, “Discovery of indazole aldosterone synthase (CYP11B2) inhibitors as potential treatments for hypertension” (Bioorg Med Chem Lett, 2017).

A short description of data set [1]: Selectivity ratio of IC50 for human CYP11B1-8C7 expressed in Chinese hamster V79 cells to IC50 for human CYP11B2-CLE9 expressed in Chinese hamster V79 cells.
In data set [2] the target is T1, Cytochrome P450 11B2, mitochondrial (Homo sapiens, UniProt P19099).
T1 sequence (P19099 whole entry): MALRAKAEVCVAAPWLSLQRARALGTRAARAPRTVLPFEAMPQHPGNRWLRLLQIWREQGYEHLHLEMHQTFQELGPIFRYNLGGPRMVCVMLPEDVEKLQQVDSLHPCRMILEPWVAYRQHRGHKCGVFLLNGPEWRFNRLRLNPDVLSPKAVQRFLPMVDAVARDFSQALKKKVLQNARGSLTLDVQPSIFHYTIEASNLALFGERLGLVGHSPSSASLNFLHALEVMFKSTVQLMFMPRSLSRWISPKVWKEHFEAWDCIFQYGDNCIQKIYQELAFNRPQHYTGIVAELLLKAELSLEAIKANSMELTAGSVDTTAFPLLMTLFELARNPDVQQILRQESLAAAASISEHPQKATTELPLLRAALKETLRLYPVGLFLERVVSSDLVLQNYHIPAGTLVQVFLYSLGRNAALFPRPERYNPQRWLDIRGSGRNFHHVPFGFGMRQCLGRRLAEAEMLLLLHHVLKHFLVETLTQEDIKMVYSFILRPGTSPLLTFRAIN
The experiment in a line: Inhibition of human CYP11B2-CLE9 expressed in Chinese hamster V79 cells using 11-deoxycorticosterone as substrate preincubated for 1 hr followed by substrate addition measured for 3 hrs by HTRF assay. The class given is cell-based.

Data set [3] deals with T2, Cytochrome P450 11B1, mitochondrial (Homo sapiens, UniProt P15538).
T2 sequence (P15538 whole entry): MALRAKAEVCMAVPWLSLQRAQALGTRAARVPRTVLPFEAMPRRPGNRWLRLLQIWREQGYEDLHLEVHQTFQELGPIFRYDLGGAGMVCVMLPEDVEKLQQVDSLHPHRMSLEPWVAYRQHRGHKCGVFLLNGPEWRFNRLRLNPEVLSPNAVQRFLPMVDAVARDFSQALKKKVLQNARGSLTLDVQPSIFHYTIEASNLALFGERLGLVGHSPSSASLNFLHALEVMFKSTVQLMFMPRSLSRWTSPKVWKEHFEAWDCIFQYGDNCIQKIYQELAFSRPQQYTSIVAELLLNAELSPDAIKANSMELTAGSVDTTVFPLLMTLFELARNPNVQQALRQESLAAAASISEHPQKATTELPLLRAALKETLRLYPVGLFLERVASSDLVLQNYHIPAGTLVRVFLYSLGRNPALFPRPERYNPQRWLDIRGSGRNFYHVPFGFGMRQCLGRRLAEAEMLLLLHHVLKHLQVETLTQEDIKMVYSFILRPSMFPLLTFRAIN
Kind of data set: Inhibition of human CYP11B1-8C7 expressed in Chinese hamster V79 cells using 11-deoxycortisol as substrate preincubated for 1 hr followed by substrate addition measured for 3 hrs by HTRF assay. The class given is ADME, cell-based.

Data set [4] can be described thus: Intrinsic clearance in rat liver microsomes at […] preincubated for 10 mins followed by NADPH addition measured after 45 mins by LC-MS analysis. The class given is ADME, microsome. As to conditions: read-out: CLH.

Turning to `CC(C)(O)c1cncc(-n2ncc3ccc(Cl)cc32)c1`, the “Ratio IC50” value in data set [1] is above 16. Further, the IC50 in data set [2] lay in the range of 528 to 530 nM; in data set [3], 8300 to 8330 nM.

For the compound `Cc1ccc2c(cnn2-c2cncc(C(C)(C)O)c2)c1`, the “Ratio IC50” value in data set [1] is given as 9. The IC50 in data set [2] is 97.9 to 98 nM; in data set [3], 916 to 920 nM.

As for `CC(C)(O)c1cncc(-n2nc(C3CC3)c3ccccc32)c1`, in data set [1], the “Ratio IC50” value is reported as above 11. In addition, the IC50 in data set [2] was 760 to 763 nM; in data set [3], 8300 to 8330 nM.

For `Fc1cncc(-n2ncc3cc(F)ccc32)c1`, the “Ratio IC50” value in data set [1] is reported as above 18. Besides, in data set [4], the CLint scaled was found to be 85 mL/min/kg. The half-inhibitory concentration (IC50) lay in the range of 456 to 460 nM in data set [2] and 8300 to 8330 nM in data set [3].

Consider `COc1ccc2c(cnn2-c2cncc(C(C)(C)O)c2)c1`, for which the “Ratio IC50” value in data set [1] is on record as 12. The IC50 in data set [2] is 84.9 to 85 nM; in data set [3], 1000 nM.

For the compound `CC(C)(O)c1cncc(-n2ncc3cc(C(F)(F)F)ccc32)c1`, the “Ratio IC50” value in data set [1] came out at 2. For the same compound, in data set [4], the CLint scaled is below 20 mL/min/kg. In addition, the figures for the IC50 in data set [2] and in data set [3] were 507 to 510 nM and 1200 to 1240 nM, respectively.

Take `Cc1cccc2c1cnn2-c1cncc(C(C)(C)O)c1`: the “Ratio IC50” value in data set [1] is 27. In addition, the IC50 in data set [2] was 7.77 to 8 nM; in data set [3], 210 nM.

Take `CC(C)(O)c1cncc(-n2ncc3c(F)ccc(F)c32)c1`: the “Ratio IC50” value in data set [1] is reported as 6 - 11. Also, the CLint scaled in data set [4] is below 20 mL/min/kg. Besides, the results for the IC50 in data set [2] and in data set [3] were 0.3 to 0.8 nM and 1.8 to 8.9 nM, respectively.

In data set [2], `COC(=O)c1cccc2c1cnn2-c1cncc(C(C)(C)O)c1` had an IC50 of 22 to 22.1 nM.

With `CC(C)(O)c1cncc(-n2ncc3cc(Cl)ccc32)c1`, the “Ratio IC50” value in data set [1] came out at 17. For the same compound, the values for the IC50 in data set [2] and in data set [3] were 27 to 27.3 nM and 470 nM, respectively.

Consider `CC(C)(O)c1cncc(-n2ncc3ccc(C(F)(F)F)cc32)c1`, for which, in data set [1], the “Ratio IC50” value is above 4. Besides, the values for the IC50 in data set [2] and in data set [3] were 2300 nM and 8300 to 8330 nM, respectively.

For `COc1nn(-c2cncc(C(C)(C)O)c2)c2ccccc12`, the “Ratio IC50” value in data set [1] was found to be 57. The values for the IC50 in data set [2] and in data set [3] were 25 nM and 1400 to 1410 nM, respectively.

`CC(C)(O)c1cncc(-n2ncc3ccccc32)c1`: in data set [1], the “Ratio IC50” value is given as 36. Moreover, in data set [4], the CLint scaled is below 20 mL/min/kg. Moreover, the IC50 is 15 to 15.1 nM in data set [2] and 535 to 540 nM in data set [3].

Take `CC(C)(O)c1cncc(-n2ncc3c(Cl)ccc(F)c32)c1`: in data set [1], the “Ratio IC50” value is 5 - 20. Moreover, the IC50 fell in the range of 0.2 to 0.4 nM in data set [2] and 1.1 to 7.72 nM in data set [3].

On to `CC(C)(O)c1cncc(-n2nc(C(F)(F)F)c3ccccc32)c1`, for which the “Ratio IC50” value in data set [1] is recorded as above 27. The IC50 was in the range of 300 to 304 nM in data set [2] and 8300 to 8330 nM in data set [3].

On to `CC(C)(O)c1cncc(-n2ncc3ccc(F)cc32)c1`, for which, in data set [1], the “Ratio IC50” value amounted to 25. Besides, the CLint scaled in data set [4] was 83 mL/min/kg. Further, the IC50 in data set [2] fell in the range of 78.5 to 79 nM; in data set [3] it was 1990 to 2000 nM.

Consider `CC(O)(c1cncc(-n2ncc3cc(F)ccc32)c1)C(F)(F)F` (configuration not stated), for which the “Ratio IC50” value in data set [1] turned out to be 24. Also, the CLint scaled in data set [4] was found to be 230 mL/min/kg. For the same compound, the IC50 in data set [2] lay in the range of 2 to 2.13 nM; in data set [3] it was 47 to 47.4 nM.

For the compound `Fc1ccc2c(cnn2-c2cccnc2)c1`, in data set [1], the “Ratio IC50” value is above 38. In addition, the CLint scaled in data set [4] was 43 mL/min/kg. The IC50 in data set [2] was 217 to 220 nM; in data set [3], 8300 to 8330 nM.

With `CC(C)(O)c1cncc(-n2ncc3cccc(F)c32)c1`, the “Ratio IC50” value in data set [1] is listed as 12. Also, the CLint scaled in data set [4] was below 20 mL/min/kg. Moreover, the IC50 in data set [2] was 0.9 nM; in data set [3] it was 10.7 to 11 nM.

On to `COC(=O)c1cncc(-n2ncc3cc(F)ccc32)c1`, for which the “Ratio IC50” value in data set [1] amounted to 17. Also, the IC50 turned out to be 31 nM in data set [2] and 520 nM in data set [3].

On to `CC(C)(O)c1cncc(-n2ncc3cc(F)ccc32)c1`, for which the “Ratio IC50” value in data set [1] is listed as 15 - 19. For the same compound, in data set [4], the CLint scaled worked out at 30 mL/min/kg. The IC50 was 10.9 to 13 nM in data set [2] and 197 to 210 nM in data set [3].

For `Cc1nn(-c2cncc(C(C)(C)O)c2)c2ccccc12`, the “Ratio IC50” value in data set [1] came out at 44. Moreover, the IC50 in data set [2] was 33.5 to 34 nM; in data set [3] it was 779 to 780 nM.

For `CC(C)(O)c1cncc(-n2ncc3cc(C#N)ccc32)c1`, in data set [1], the “Ratio IC50” value is listed as above 7. Also, the IC50 was 1160 nM in data set [2] and 8300 to 8330 nM in data set [3].

On to `Fc1ccc2c(cnn2-c2cncc(C(F)(F)F)c2)c1`, for which the “Ratio IC50” value in data set [1] was found to be 19. Also, the CLint scaled in data set [4] came to 300 mL/min/kg. Also, the results for the IC50 in data set [2] and in data set [3] were 88 to 88.3 nM and 1690 to 1700 nM, respectively.

For the compound `COc1cncc(-n2ncc3cc(F)ccc32)c1`, the “Ratio IC50” value in data set [1] worked out at 30. Also, the IC50 was 44 to 44.1 nM in data set [2] and 1300 nM in data set [3].

On to `CC(C)(O)c1cncc(-n2ncc3c(F)cccc32)c1`, for which the “Ratio IC50” value in data set [1] is 19. The CLint scaled in data set [4] is 64 mL/min/kg. The results for the IC50 in data set [2] and in data set [3] were 7.58 to 8 nM and 149 to 150 nM, respectively.
